In patent US20150247149A1, “Detecting and Treating Liver Damage” (The Regents of the University of California, priority 2012, published 2015):

How the values were obtained:
HUVECs [1] = assay: HUVEC tube formation assay; type: cell-based, human
Procedure: HUVECs (0.5-1×10^5 cells per well) were seeded onto a coated 24-well plate culture dishes with 200 μl/cm2 (thick gel method) of Matrigel (BD, Franklin Lakes, N.J., USA) and cultured in EBM-2 basal medium supplemented with 1.1% of streptomycin and penicillin in the presence of 100 ng/mL of VEGF (Peprotech, Rocky Hill, N.J., USA), hepatocytes-derived MPs, MP-free supernatant or conditioned supernatant collected after 24 hours of treatment with FFAs. In selective studies, a specific inhibitor for RhoA-ROCK (Y27632, 10 μM) was used in association with MPs in the treatment of endothelial cells. For the ex vivo studies, PFP isolated from different groups of mice (chow, HF/HCarb, MCD fed mice and mice injected with control RNA, VNN1 siRNA or PBS as vehicle) were ultracentrifuged at 100,000 g for 1 h at 10° C. to pellet the blood MPs. HUVECs were treated with MPs (or blood pure MPs) and incubated for 5 h at 37° C. Tube formation was investigated by using an inverted microscope at 4× magnification and images were captured. Tube formation image analysis was assessed by using Wimtube software (Wimasis, Munich, Germany) and the values referred to total tube length (pixel) were used for statistical and data analysis.

HUVECs [2] = assay: HUVEC migration (Boyden's chamber chemotaxis, wound healing); type: cell-based, human
Procedure: In vitro migration studies have been performed by using human umbilical cell endothelial cells (HUVECs). Wound healing assay was performed to analyze chemokinesis (non-oriented migration) by using collagen-coated 6-well culture plate, where a silicon elastomer (PDMS) strip was placed vertically to the bottom of every well to create the artificial wound. HUVECs were plated and grown until reaching the complete confluence. HUVECs were treated with EBM-2 supplemented with 100 ng/mL of VEGF (Peprotech, Rocky Hill, N.J., USA), hepatocytes-derived MPs, MP-free supernatant or supernatant collected after 24 hours of treatment with FFAs. The strips were removed carefully and migration of cells was detected by a confocal microscope, capturing one picture per field every 10 minutes for 48 hours. Mitomycin (1 μg/ml) was used to inhibit cell proliferation during wound healing assay. Data were analyzed by using Wimscratch software (Wimasis, Munich, Germany) in order to get the total cell-covered area (pixel). Boyden's chamber assay was performed to analyze chemotaxis (oriented migration) by using cell culture inserts 8 μm pore size (Millipore, Billerica, Mass., USA) and 24-well plate. Each well was filled with 500 μl of serum free EBM-2 media in presence or absence of the following chemoattractants: 100 ng/mL VEGF; hepatocytes-derived MPs; MP-free supernatant or conditioned supernatant. The inserts were placed on top of each well and 150 μl of cell suspension (5×10^4 cells) was added. Plates were incubated overnight at 37° C., and then the filters were removed and stained with Vectashield mounting medium with 4′,6-diamino-2-phenylindole (DAPI) (Vector Labs, Burlingame, Calif., USA).
Migrated cells were detected with a fluorescence microscope and number per field of their nuclei was counted. For the ex vivo studies, PFP isolated from different groups of mice (chow, HF/HCarb, MCD fed mice and mice injected with control siRNA, VNN1 siRNA or PBS as vehicle) were ultracentrifuged at 100,000 g for 1 h at 10° C. to pellet the blood MPs.

[3] = system: HepG2 and primary rat hepatocytes; assay: Release of Annexin V-positive MPs from hepatocytes (flow cytometry); type: cell-based, human (HepG2); rat (primary hepatocytes); conditions: palmitic acid-treated hepatocytes co-incubated with caspase 3 inhibitor (FIGS. 2E, 2G)
Procedure: For microparticles (MPs) isolation, HepG2 and primary rat hepatocytes were seeded onto a 100 mm dish and cultured until reaching 80-85% of confluence. Cells were incubated with 0.25 mM of palmitic, stearic, oleic or linoleic acid (FFA) in serum-free DMEM, supplemented with 1.1% penicillin and streptomycin, 1% endotoxin-free bovine serum albumin (BSA), for up to 24 h. […] The uptake of FFAs from hepatocytes was evaluated by Oil red-O staining kit (Cayman, Ann Arbor, Mich., USA) according to the manufacturer instruction. To determine the effect of caspase 3 activity, hepatocytes were treated with a selective caspase 3 inhibitor, Ac-DEVD-CHO (BD Pharmingen, Franklin Lakes, N.J., US). Control cells were incubated with the same serum-free media in association to the vehicle that was used to dissolve the FFAs. After 24 h, the supernatant were collected and centrifuged twice at 3,000 rpm for 15 minutes to remove cell debris and aggregates. The supernatant was then transferred to new tubes and ultracentrifuged at 100,000 g for 90 minutes at 10° C., to avoid contamination of exosomes.
The supernatant was collected in new tubes and used as a MP-free control and the pelleted MPs were resuspended in 200 μl of PBS for flow cytometry or in 500 μl of EGM-2 growth medium for subsequent in vitro studies. The concentration of microparticles μg/mL was determined by the BCA protein assay and different concentrations of MPs (50, 125, 250 and 500 μg/mL) were used to perform the dose-dependent angiogenesis in vitro assays. For selected purposes, in particular for the characterization analyses, crude MPs were purified by 10-70% sucrose gradient ultracentrifugation at 150,000 g for 18 h at 10° C., collected as fractions in new tubes. […]
Flow cytometry analyses for microparticles (or endothelial cells) detection were performed by using BD LSRII Flow Cytometer System (BD Biosciences, San Jose, Calif., USA) and the data were analyzed using FlowJo software (TreeStar Inc., Ashland, Oreg., USA). […]

HUVECs [4] = assay: Internalization of microparticles into endothelial cells; type: cell-based, human; conditions: HUVECs pre-treated with 10 mM MβCD 15 min or 2.5 μg/mL cav-1 nAb 30 min at 37° C., then MPs 6 h
Procedure: Internalization of hepatocyte-derived MPs into HUVECs and the role of VNN1 and lipid raft were evaluated by flow cytometry, indirect immunofluorescence and electron microscopy. To investigate the MPs internalization into HUVECs, by flow cytometry, MPs were stained with 1 μM of Calcein, AM (MPCalcein) (BD Biosciences), a fluorescent dye with an emission wavelength of 515 nm, for 1 h in the dark at 37° C. MPs were centrifuged twice with PBS for 30 minutes at 35,000 rpm and resuspended in 500 μL of EGM medium. To block MPs internalization, MPsCalcein were incubated with or without 4 μg/mL of rabbit polyclonal anti-VNN1 antibody (S3055; Epitomics, Burlingame, Calif., USA) for 30 minutes at RT. A rabbit anti-GAPDH antibody (Abcam, Cambridge, Mass., USA) was used as a control. […] Cells were trypsinized and FITC positive HUVECs were detected by BD LSRII Flow Cytometer System (BD) and counted. […]
The MPs suspension was incubated in the dark for 4 minutes, and then 2 mL of 1% BSA was added and kept for 1 minute to stop the reaction. […] HUVECs (4×10^3 cell per well) were seeded onto a 24-well plate and depletion of cholesterol was assessed by a treatment with 10 mM of Methyl-β-cyclodextrin (MβCD) in serum-free EBM-2 medium for 15 minutes at 37° C., followed by wash with fresh medium. […]

[5] = HUVECs treated with MPs and Y27632, 10 μM

Compound: C[C@@H](N)[C@H]1CC[C@H](C(=O)Nc2ccncc2)CC1 [Y-27632]
- tube formation (MP-mediated) (HUVECs [1]; [5]): significant decrease
- chemotaxis (MP-mediated) (HUVECs [2]; [5]): significant decrease

Compound: CCCCCCCCCCCCCCCCCC(=O)O [stearic acid]
- tube formation induced by cell-free supernatants of FFA-treated hepatocytes (HUVECs [1]; supernatants from HepG2/primary rat hepatocytes incubated with FFA up to 24 h, VEGF-A positive control): marked increase
- endothelial cell oriented (chemotaxis) and non-oriented migration induced by cell-free supernatants of FFA-treated hepatocytes (HUVECs [2]; supernatants from hepatocytes incubated with FFA up to 24 h, VEGF-A positive control): marked increase

Compound: Ac-DEVD-CHO [selective caspase 3 inhibitor]
- formation and release of MPs [3]: drastically reduced

Compound: Methyl-β-cyclodextrin
- MPs internalization into the endothelial cells (HUVECs [4]): marked reduction
